Patent US20260217767A1, “NOVEL A4B7 THIOETHER PEPTIDE DIMER ANTAGONISTS” (Protagonist Therapeutics, Inc., priority 2014, published 2026)
pIC50: −log10 of the molar value. Where a SMILES comes first, the peptide text is derived from it.

Legend:
rh integrin α4β7 = molecular target: T1, rh integrin α4β7 (Homo sapiens, UniProt P13612+P26010); test: α4β7-MAdCAM Competition ELISA; type: binding; conditions: thioether monomer peptides, Table 6; read-out: ELISA A4B7
T1 construct: purchased R&D Systems 5397-A30
T1 sequence (P13612 34-977 limits assumed): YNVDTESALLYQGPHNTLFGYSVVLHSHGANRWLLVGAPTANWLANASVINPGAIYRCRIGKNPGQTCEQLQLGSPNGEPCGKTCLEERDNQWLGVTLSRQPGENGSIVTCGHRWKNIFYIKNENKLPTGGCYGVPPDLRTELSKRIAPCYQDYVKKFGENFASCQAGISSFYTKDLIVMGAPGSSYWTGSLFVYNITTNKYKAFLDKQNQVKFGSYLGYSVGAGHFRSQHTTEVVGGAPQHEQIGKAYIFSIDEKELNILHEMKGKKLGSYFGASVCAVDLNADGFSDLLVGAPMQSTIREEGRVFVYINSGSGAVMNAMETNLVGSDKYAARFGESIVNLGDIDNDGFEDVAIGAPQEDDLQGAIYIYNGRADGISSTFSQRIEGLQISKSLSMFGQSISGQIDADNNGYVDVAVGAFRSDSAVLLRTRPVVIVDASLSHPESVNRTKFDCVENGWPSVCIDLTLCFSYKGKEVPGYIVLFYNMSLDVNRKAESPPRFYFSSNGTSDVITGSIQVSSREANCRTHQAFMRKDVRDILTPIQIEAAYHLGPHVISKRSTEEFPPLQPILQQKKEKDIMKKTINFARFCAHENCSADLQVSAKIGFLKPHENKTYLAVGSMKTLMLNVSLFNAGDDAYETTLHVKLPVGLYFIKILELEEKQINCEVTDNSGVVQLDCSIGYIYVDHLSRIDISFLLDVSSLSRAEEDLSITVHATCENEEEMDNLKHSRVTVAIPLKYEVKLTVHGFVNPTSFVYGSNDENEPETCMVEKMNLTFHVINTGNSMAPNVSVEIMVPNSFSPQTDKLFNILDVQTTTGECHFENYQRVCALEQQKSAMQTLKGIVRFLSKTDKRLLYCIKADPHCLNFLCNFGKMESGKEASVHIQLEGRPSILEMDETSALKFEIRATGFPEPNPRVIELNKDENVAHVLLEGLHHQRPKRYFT
T1 sequence (P26010 20-723 limits assumed): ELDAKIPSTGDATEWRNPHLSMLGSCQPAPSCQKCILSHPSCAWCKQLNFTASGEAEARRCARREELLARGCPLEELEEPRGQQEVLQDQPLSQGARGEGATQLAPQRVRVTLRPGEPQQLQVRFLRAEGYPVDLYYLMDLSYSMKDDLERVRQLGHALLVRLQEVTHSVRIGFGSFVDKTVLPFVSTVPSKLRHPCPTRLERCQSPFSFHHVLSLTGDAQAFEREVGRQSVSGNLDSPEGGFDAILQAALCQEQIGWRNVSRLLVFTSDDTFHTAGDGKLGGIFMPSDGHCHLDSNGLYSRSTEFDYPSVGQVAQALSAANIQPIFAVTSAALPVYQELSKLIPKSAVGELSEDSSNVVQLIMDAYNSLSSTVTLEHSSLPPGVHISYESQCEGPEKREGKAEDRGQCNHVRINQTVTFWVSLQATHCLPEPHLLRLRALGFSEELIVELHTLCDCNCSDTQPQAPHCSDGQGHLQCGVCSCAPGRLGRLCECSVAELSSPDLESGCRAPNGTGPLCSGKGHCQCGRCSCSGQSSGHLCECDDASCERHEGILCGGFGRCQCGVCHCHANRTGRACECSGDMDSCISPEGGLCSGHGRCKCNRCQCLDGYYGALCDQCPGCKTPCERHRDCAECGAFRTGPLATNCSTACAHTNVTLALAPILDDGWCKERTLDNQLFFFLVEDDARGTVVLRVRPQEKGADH
Protocol: α4β7-MAdCAM Competition ELISA A nickel coated plate (Pierce #15442) was coated with rh integrin α4β[…] Systems #5397-A30) at 800 ng/well and incubated at room temperature with shaking for 1 hr. The solution was then removed by shaking and blocked with assay buffer (50 mM Tris-HCl pH7.6, 150 mM NaCl, 1 mM MnCl2 or MgCl2, 0.05% Tween-20 and 0.5% BSA) at 250 ul/well. The plate was then incubated at room temperature for 1 hr. Each well was washed 3 times with wash buffer (50 mM Tris-HCl pH7.6, 100 mM NaCl, 1 mM MnCl2 or MgCl2, 0.05% Tween-20). To each well was added 25 ul of a serial dilution (3-fold dilutions in assay buffer) of peptides starting at 20 μM. 25 ul of recombinant human MAdCAM-1 (R&D Systems #6056-MC) was then added to each well at a fixed concentration 20 nM. The final starting peptide concentration was 10 μM, and the final MAdCAM-1 concentration was 10 nM. The plates were then incubated at room temperature for 1 hr to reach binding equilibrium. The wells were then washed three times with wash buffer. 50 ul of mouse anti-human IgG1-HRP (Invitrogen #A10648) diluted in 1:2000 in assay buffer was then added to each well. The wells were incubated at room temperature for 45 min with shaking. The wells were then washed 3 times with wash buffer. 100 ul of TMB were then added to each well and closely observe during development time. The reaction was stopped with 2N H2SO4 and absorbance was read at 450 nm.

[1] = Simulated Intestinal Fluid (SIF) Stability Assay; type: in vitro ADME; conditions: pig, 37° C., monomers, Table 6; for half-life at 22 μM: simulated intestinal fluid (SIF) with 1% porcine pancreatin, pH 6.5, porcine pancreatin
Protocol: Simulated Intestinal Fluid (SIF) Stability Assay
Studies were carried out in simulated intestinal fluid (SIF) to evaluate intestinal stability of the peptide molecules of the instant invention. To prepare the SIF reagent, blank FASSIF was prepared by dissolving 0.348 g NaOH, 3.954 g sodium phosphate monobasic monohydrate and 6.186 g NaCl in a final volume of 1 liter water (final pH=6.5). To this solution, 24 g porcine pancreatin (Sigma catalog P7545) was added and stirred for 30 minutes (final pancreatin concentration is 2.4%). The solution was filtered through a cheese cloth and a No. 1 Whatman filter, and 10 ml aliquots were stored at −70° C. To run the reaction, a 10 ml aliquot was thawed at 37° C., and 125 μl aliquots were removed and mixed with an equal volume of blank FASSIF. The peptide stock solution (10 mM in 100% DMSO) was diluted 75-fold in blank FASSIF. A 50 μl aliquot of the diluted peptide was combined with 125 μl pancreatin (2.4%) and 125 μl blank FASSIF to yield final concentrations of 1% pancreatin and 22 μM peptide. The reactions were incubated at 37° C., and at various time points 50 μl aliquots were removed and added to 200 μl of quench solution containing 50% acetonitrile, 50% methanol, 5% formic acid, and 1 μg/ml internal standard. The quenched samples were centrifuged at 10,000 rpm for 10 minutes, and the supernatants were analyzed by LCMS/MS. The percent remaining at each time point was calculated based on the peak area response ratio of test to compound to internal standard. Half-lives were calculated by fitting to a first-order exponential decay equation using GraphPad. A small sampling of the results of these studies is provided and discussed herein and in the accompanying figures.

CC(C)C[C@@H]1NC(=O)[C@H]([C@@H](C)O)NC(=O)[C@H](CC(=O)O)NC(=O)[C@H](CO)NC(=O)[C@H](CCCNC(=N)N)N(C)C(=O)C(C)SC[C@@H](C(=O)N[C@@H](Cc2c[nH]c3ccccc23)C(=O)N[C@H](CCCCN)C(N)=O)NC1=O (single isomer, unassigned) [compound 51]
pIC50 (rh integrin α4β7): 7.00 to 7.60
half-life at 22 μM [1]: 6 min

CC(C)C[C@@H]1NC(=O)[C@H]([C@@H](C)O)NC(=O)[C@H](CC(=O)O)NC(=O)[C@H](CO)NC(=O)[C@H](CCCNC(=N)N)N(C)C(=O)CSC(C)(C)[C@@H](C(=O)N[C@@H](Cc2c[nH]c3ccccc23)C(=O)N[C@H](CCCCN)C(N)=O)NC1=O [compound 53]
pIC50 (rh integrin α4β7): 6.00 to 7.00
half-life at 22 μM [1]: > 180 min

CC(C)C[C@@H]1NC(=O)[C@H]([C@@H](C)O)NC(=O)[C@H](CC(=O)O)NC(=O)[C@H](CO)NC(=O)[C@H](CCCNC(=N)N)N(C)C(=O)CCSCC[C@@H](C(=O)N[C@@H](Cc2c[nH]c3ccccc23)C(=O)N[C@H](CCCCN)C(N)=O)NC1=O [compound 57]
pIC50 (rh integrin α4β7): 6.00 to 7.00
half-life ([1]; porcine pancreatin): < 20 min

CC(C)C[C@@H]1NC(=O)[C@H]([C@@H](C)O)NC(=O)[C@H](CC(=O)O)NC(=O)[C@H](CO)NC(=O)[C@H](CCCNC(=N)N)NC(=O)c2ccccc2CSC[C@@H](C(=O)N[C@@H](Cc2c[nH]c3ccccc23)C(=O)N[C@H](CCCCN)C(N)=O)NC1=O [compound 59]
pIC50 (rh integrin α4β7): 6.00 to 7.00
half-life at 22 μM [1]: < 20 min

CC(=O)NCCCC[C@@H](NC(=O)[C@@H](CCC(=O)O)NC(=O)[C@H](Cc1ccccc1)NC(=O)[C@H]1NC(=O)[C@H](CC(C)C)NC(=O)[C@H]([C@@H](C)O)NC(=O)[C@H](CC(=O)O)NC(=O)[C@H](CO)NC(=O)[C@H](CCCNC(=N)N)N(C)C(=O)c2ccccc2CSC1(C)C)C(N)=O [compound 87] (HELM PEPTIDE1{[meR].S.D.T.L.[Pen].F.[dE].[dK].[am]}|PEPTIDE2{[ac]}|CHEM1{[O=C(c1ccccc1C[*:2])[*:1]]}$PEPTIDE1,PEPTIDE2,9:R3-1:R2|PEPTIDE1,CHEM1,1:R1-1:R1|PEPTIDE1,CHEM1,6:R3-1:R2$$$V2.0)
pIC50 (rh integrin α4β7): > 7.60

CC(=O)NCCCC[C@@H](NC(=O)[C@H](CCC(=O)O)NC(=O)[C@H](Cc1ccc(O)cc1)NC(=O)[C@H]1NC(=O)[C@H](CC(C)C)NC(=O)[C@H]([C@@H](C)O)NC(=O)[C@H](CC(=O)O)NC(=O)[C@H](CO)NC(=O)[C@H](CCCNC(=N)N)N(C)C(=O)c2ccccc2CSC1(C)C)C(N)=O [compound 90] (HELM PEPTIDE1{[meR].S.D.T.L.[Pen].Y.E.[dK].[am]}|PEPTIDE2{[ac]}|CHEM1{[O=C(c1ccccc1C[*:2])[*:1]]}$PEPTIDE1,PEPTIDE2,9:R3-1:R2|PEPTIDE1,CHEM1,1:R1-1:R1|PEPTIDE1,CHEM1,6:R3-1:R2$$$V2.0)
pIC50 (rh integrin α4β7): > 7.60

CC(C)C[C@H](NC(=O)[C@@H](CCC(=O)O)NC(=O)[C@H](Cc1c[nH]c2ccccc12)NC(=O)[C@H]1NC(=O)[C@H](CC(C)C)NC(=O)[C@H]([C@@H](C)O)NC(=O)[C@H](CC(=O)O)NC(=O)[C@H](CO)NC(=O)[C@H](CCCNC(=N)N)N(C)C(=O)c2ccccc2CSC1(C)C)C(N)=O [compound 99] (HELM PEPTIDE1{[meR].S.D.T.L.[Pen].W.[dE].L.[am]}|CHEM1{[O=C(c1ccccc1C[*:2])[*:1]]}$PEPTIDE1,CHEM1,1:R1-1:R1|PEPTIDE1,CHEM1,6:R3-1:R2$$$V2.0)
pIC50 (rh integrin α4β7): > 7.60

CC(C)C[C@@H]1NC(=O)[C@H]([C@@H](C)O)NC(=O)[C@H](CC(=O)O)NC(=O)[C@H](CO)NC(=O)[C@H](CCCNC(=N)N)N(C)C(=O)c2ccccc2CSC(C)(C)[C@@H](C(=O)N[C@@H](Cc2c[nH]c3ccccc23)C(=O)N[C@H](CCC(=O)O)C(=O)N[C@@H](CCC(N)=O)C(N)=O)NC1=O [compound 103] (HELM PEPTIDE1{[meR].S.D.T.L.[Pen].W.[dE].Q.[am]}|CHEM1{[O=C(c1ccccc1C[*:2])[*:1]]}$PEPTIDE1,CHEM1,1:R1-1:R1|PEPTIDE1,CHEM1,6:R3-1:R2$$$V2.0)
pIC50 (rh integrin α4β7): > 7.60

CC(C)C[C@@H]1NC(=O)[C@H]([C@@H](C)O)NC(=O)[C@H](CC(=O)O)NC(=O)[C@H](CO)NC(=O)[C@H](CCCNC(=N)N)N(C)C(=O)c2ccccc2CSC(C)(C)[C@@H](C(=O)N[C@@H](Cc2c[nH]c3ccccc23)C(=O)N[C@H](CCC(=O)O)C(=O)N[C@H](Cc2c[nH]cn2)C(N)=O)NC1=O [compound 109] (HELM PEPTIDE1{[meR].S.D.T.L.[Pen].W.[dE].[dH].[am]}|CHEM1{[O=C(c1ccccc1C[*:2])[*:1]]}$PEPTIDE1,CHEM1,1:R1-1:R1|PEPTIDE1,CHEM1,6:R3-1:R2$$$V2.0)
pIC50 (rh integrin α4β7): > 7.60

COC(=O)CC[C@H](NC(=O)[C@H](Cc1c[nH]c2ccccc12)NC(=O)[C@H]1NC(=O)[C@H](CC(C)C)NC(=O)[C@H]([C@@H](C)O)NC(=O)[C@H](CC(=O)O)NC(=O)[C@H](CO)NC(=O)[C@H](CCCNC(=N)N)N(C)C(=O)c2ccccc2CSC1(C)C)C(=O)N[C@H](CCCCN)C(N)=O [compound 115] (HELM PEPTIDE1{[meR].S.D.T.L.[Pen].W.E.[dK].[am]}|CHEM1{[CO[*:1]]}|CHEM2{[O=C(c1ccccc1C[*:2])[*:1]]}$PEPTIDE1,CHEM1,8:R3-1:R1|PEPTIDE1,CHEM2,1:R1-1:R1|PEPTIDE1,CHEM2,6:R3-1:R2$$$V2.0)
pIC50 (rh integrin α4β7): > 7.60
